Data published in patent US10221163B2 (priority 2015, dated 2019).
Values after ≈ are worked out from the molar mass of the structure shown.

What was measured:
Assay in all cases: microbe, parasite or virus in culture
[1] = system: Pseudomonas aeruginosa MB 5890 (OprD+, efflux−); assay type: cell-based; settings: MB 5890, OprD+, efflux−
[2] = system: MB 9799: MB 5890 Trans IMP1 plasmid (OprD+, efflux−); assay type: cell-based, Pseudomonas aeruginosa; settings: MB 9799 = MB 5890 Trans IMP1 plasmid, OprD+, efflux−
[3] = system: Pseudomonas aeruginosa MB 5919 (OprD+, efflux+); assay type: cell-based; settings: MB 5919, OprD+, efflux+
[4] = system: MB 9861: MB 5919 Trans pFlp-Vim1 plasmid (OprD+, efflux+); assay type: cell-based, Pseudomonas aeruginosa; settings: MB 9861 = MB 5919 Trans pFlp-Vim1 plasmid, OprD+, efflux+
[5] = system: MB 9798: MB 5919 Trans IMP1 plasmid (OprD+, efflux+); assay type: cell-based, Pseudomonas aeruginosa; settings: MB 9798 = MB 5919 Trans IMP1 plasmid, OprD+, efflux+
[6] = system: MB9862: MB 5890 Trans pFlp-Vim1 (OprD+, efflux−); assay type: cell-based, Pseudomonas aeruginosa; settings: MB9862 = MB 5890 Trans pFlp-Vim1, OprD+, efflux−
[7] = system: MB 5890 Trans pFlp-Vim2 plasmid (OprD+, efflux−); assay type: cell-based, Pseudomonas aeruginosa; settings: MB 5890 Trans pFlp-Vim2 plasmid, OprD+, efflux−
[8] = system: MB 5919 Trans pFlp-Vim2 plasmid (OprD+, efflux+); assay type: cell-based, Pseudomonas aeruginosa; settings: MB 5919 Trans pFlp-Vim2 plasmid, OprD+, efflux+

Row | SMILES | MIC [1] [µg/mL] | MIC [2] [µg/mL] | MIC [3] [µg/mL] | MIC [4] [µg/mL] | MIC [5] [µg/mL] | MIC [6] [µg/mL] | MIC [7] [µg/mL] | MIC [8] [µg/mL]
1 | C[C@@H](O)[C@H]1C(=O)N2C(C(=O)O)=C(SCCN=CN)C[C@H]12 [Imipenem, imipenem] | 2 (≈ 6.68 µM) | 32 (≈ 107 µM) | 4 (≈ 13.4 µM) | >64 | 64 (≈ 214 µM) | 64 (≈ 214 µM) | 32 (≈ 107 µM) | >64
2 | C[C@@H](O)[C@H]1C(=O)N2C(C(=O)O)=C(S[C@@H]3CN[C@H](C(=O)N(C)C)C3)[C@H](C)[C@H]12 [Meropenem, meropenem] | 0.5 (≈ 1.3 µM) | 64 (≈ 167 µM) | 2 (≈ 5.22 µM) | >64 | >64 | 64 (≈ 167 µM) | 32 (≈ 83.4 µM) | >64
3 | CCN1CCN(C(=O)N[C@@H](C(=O)N[C@@H]2C(=O)N3[C@@H]2SC(C)(C)[C@@H]3C(=O)O)c2ccccc2)C(=O)C1=O [Piperalln, piperacillin] | 1 (≈ 1.93 µM) | 4 (≈ 7.73 µM) | 2 (≈ 3.86 µM) | >256 | 4 (≈ 7.73 µM) | 128 (≈ 247 µM) | 128 (≈ 247 µM) | >256
